# Experimental data reported in patent US8722703B2, “Fused amino pyridines for the treatment of brain tumors” (Curis, Inc., priority 2009, dated 2014).
# Where two headings read alike, the source gives them in different places.
# Tests used:
# [1] = system: MV4-11 AML s.c. tumor; assay: Efficacy study in MV4-11 s.c. tumor model; type: in vivo, sever combined immunodeficient mice; details: 160 mg/kg orally q2d, three weeks, pretreatment volume 146 mm^3
# Description: In an efficacy study using MV4-11 s.c. tumor model (n=8), MV4-11 AML tumor cells (20×10^6) were implanted s.c. into sever combined immunodeficient mice.
# [2] = system: H1993 NSCLC cells; assay: Western blot of H1993 NSCLC cells after short-term treatment; type: cell-based; details: 1 μmol/L for 7 hours
# [3] = Mouse brain concentrations after oral 30 mg/Kg in nude mice with U87MG xenografts; type: in vivo
# [4] = system: cancer derived HSP90 complex (H1975 NSCLC cell extracts); assay: Fluorescence polarization geldanamycin competition binding with H1975 cell extract
# [5] = system: cancer derived HSP90 complex (H1993 NSCLC cell extracts); assay: Fluorescence polarization geldanamycin competition binding with H1993 cell extract
# [6] = system: H1975 NSCLC s.c. tumor; assay: Efficacy study in the H1975 s.c. tumor model (160 mg/kg q2d); type: in vivo, nude mice; details: 160 mg/kg orally q2d, 3 wk
# Description: H1975 NSCLC cells (5×10^6) were implanted s.c. into nude mice. Treatment with Compound-15 (160 mg/kg, orally, q2d) started when tumors reached an average volume of 160 mm^3.
# [7] = system: Colo205 colorectal cancer s.c. tumor; assay: Efficacy study in the Colo205 s.c. tumor model; type: in vivo, nude mice; details: 120 mg/kg orally q2d
# [8] = system: H1975 NSCLC cells; assay: Western blot of H1975 NSCLC cells after short-term treatment; type: cell-based; details: 1 μmol/L for 7 hours
# [9] = system: A549 subcutaneous tumors; assay: Pharmacodynamic study in K-ras-mutated A549 subcutaneous tumors; type: in vivo; details: 160 mg/kg, 6- and 24-h time points
# [10] = system: H1975 orthotopic lung tumors; assay: Pharmacodynamic study in H1975 orthotopic lung tumors; type: in vivo; details: 160 mg/kg once
# Description: Tumors were collected at various time points (n=2-3) and subjected to Western blot analysis.
# [11] = PK profile of compound 15 after oral 30 mg/kg, single dose study; type: in vivo, mice; details: female, athymic nude (CD-1 nu/nu), mouse, plasma
# Description: Female athymic nude (CD-1 nu/nu) were obtained from Charles River Laboratories (Wilmington, Mass.). They were housed in ventilated micro-isolator cages in Curis animal facility conditioned at temperature of 23±1° C., humidity of 50-70%, and a 12-hour light/12-hour dark cycle. The animals were fed with irradiated laboratory rodent diet ad libitum and provided with sterilized water. […] The cell pellet was diluted in HBSS (Hank's balanced salt solution) for implantation. […] The concentration for each compound in the solution was kept below 5 mg/ml. The maximum number of compound in one cassette was 6.30% Captisol (Cydex) was used for all formulation. At various time points (3 mice per time point) following compound administration, mice were euthanized with CO2, blood and tissues were collected. Blood was collected into tubes containing sodium heparin. The plasma was separated via centrifugation and stored at −40° C. before analysis. Tissues including tumors were homogenized in 0.8 ml water. An internal standard was added into the tissue homogenates. The homogenates were extracted with 1 ml ethyl acetate for three times. After evaporation, the residual was reconstituted in 0.1 ml acetonitrile for LC/MS/MS assay (Agilent HPLC 1100 Series).
# [12] = system: H1975 (NSCLC) s.c. tumors; assay: PD study after single oral dosing in H1975 (NSCLC) s.c. tumors; type: in vivo; details: single oral dosing 80 mg/kg, 8 h
# [13] = system: MDA-MB-468 breast cancer orthotopic tumor; assay: Efficacy study in the MDA-MB-468 orthotopic tumor model; type: in vivo, nude mice; details: Compound-15 120 mg/kg orally q2d, paclitaxel 12.5 mg/kg i.p. twice weekly
# [14] = system: HSP90 client proteins in H1975 subcutaneous tumors; assay: Pharmacodynamic study in H1975 subcutaneous tumors, single dose; type: in vivo; details: single dose 160 mg/kg
# [15] = system: HSP90 client proteins in U87MG s.c. tumors; assay: Pharmacodynamic Western blot analysis of U87MG s.c. tumors; type: in vivo, nude mice; details: U87MG s.c. tumors, 40, 80 or 160 mg/kg oral every other day, 21 days
# [16] = PK in mouse brain after i.v. and oral delivery, cassette study in HCT116 tumor-bearing mice; type: in vivo
# [17] = system: H1975 orthotopic lung tumor; assay: Efficacy study in the H1975 orthotopic lung tumor (NSCLC) model; type: in vivo, nude mice
# Description: Dose-dependent efficacy study of Compound-15 in H1975 orthotopic lung tumor model (n=11): Mice were treated with Compound-15 (20, 40, 80, and 120 mg/kg) starting 4 day after tumor implantation.
# [18] = system: A549 orthotopic lung tumor; assay: Efficacy study in A549 orthotopic lung tumor model; type: in vivo, nude mice; details: Compound-15 120 mg/kg orally once every two days, erlotinib 50 mg/kg orally once a day, 4 wk
# [19] = system: A549 subcutaneous tumor; assay: Efficacy study in A549 subcutaneous tumor model; type: in vivo, nude mice; details: A549 s.c., 160 mg/kg orally once every two days
# [20] = system: H1975 subcutaneous tumor; assay: Efficacy study in the H1975 subcutaneous tumor model (80, 120, 160 mg/kg); type: in vivo, nude mice; details: H1975 s.c., 80, 120, or 160 mg/kg orally once every 2 days
# Description: Cells (3.5×106) were implanted subcutaneously into nude mice.
# [21] = then compound-free medium 0, 17 or 24 hours
# [22] = female, athymic nude (CD-1 nu/nu), mouse, iv, i.v. delivery (Cassette Study), read-out: HSP90 Compounds in Mouse Brain
# [23] = female, athymic nude (CD-1 nu/nu), mouse, oral delivery (10 mg/g Cassette Study), read-out: HSP90 Compounds in Mouse Brain
structure (smiles),measurement,setting,value
"CN(C)c1cc2c(cc1Sc1nc3c(N)nccc3n1CCNCC(C)(C)C)OCO2 [Compound 15, 2-(6-(dimethylamino)benzo[d][1,3]dioxol-5-ylthio)-1-(2-(neopentylamino)ethyl)-1H-imidazo[4,5-c]pyridin-4-amine]",tumor regression,[1],complete tumor regression
same,"downstream PI3K/AKT and RAF/ERK signaling (p-AKT/AKT, p-ERK/ERK levels)",[2],suppressed
same,levels of phosphorylated-MET and total MET,[2],reduced
same,"phosphorylated and total EGFR, MET, AKT, and MAPK (ERK)",[2]; [21],durably inhibited
same,concentration at 0 hr,"[3]; female, athymic nude (CD-1 nu/nu), mouse, brain, oral (30 mg/Kg) delivery, U87MG xenografts, Time 0 hr, read-out: HSP90 Compounds in Mouse Brain",0 ng/g
same,concentration at 0.5 hr,"[3]; female, athymic nude (CD-1 nu/nu), mouse, brain, oral (30 mg/Kg) delivery, U87MG xenografts, Time 0.5 hr, read-out: HSP90 Compounds in Mouse Brain",66.4 ng/g
same,concentration at 1 hr,"[3]; female, athymic nude (CD-1 nu/nu), mouse, brain, oral (30 mg/Kg) delivery, U87MG xenografts, Time 1 hr, read-out: HSP90 Compounds in Mouse Brain",124 ng/g
same,concentration at 3 hr,"[3]; female, athymic nude (CD-1 nu/nu), mouse, brain, oral (30 mg/Kg) delivery, U87MG xenografts, Time 3 hr, read-out: HSP90 Compounds in Mouse Brain",257 ng/g
same,concentration at 6 hr,"[3]; female, athymic nude (CD-1 nu/nu), mouse, brain, oral (30 mg/Kg) delivery, U87MG xenografts, Time 6 hr, read-out: HSP90 Compounds in Mouse Brain",77.8 ng/g
same,concentration at 24 hr,"[3]; female, athymic nude (CD-1 nu/nu), mouse, brain, oral (30 mg/Kg) delivery, U87MG xenografts, Time 24 hr, read-out: HSP90 Compounds in Mouse Brain",3.2 ng/g
same,crossing (into brain),"[3]; nude mice with U87MG xenografts, oral 30 mg/Kg",superior results
same,AUC in mouse brain,"[3]; oral (30 mg/Kg) delivery, U87MG xenografts",1692.2 ng·h/g
same,IC50,[4],61.2 nM
same,IC50,[5],74.2 nM
same,T/C,[6],15.4%
same,T/C,[7],14.2%
same,"downstream PI3K/AKT and RAF/ERK signaling (p-AKT/AKT, p-ERK/ERK levels)",[8],suppressed
same,levels of phosphorylated-MET and total MET,[8],reduced
same,"phosphorylated and total EGFR, MET, AKT, and MAPK (ERK)",[8]; [21],durably inhibited
same,HER2 and key components of the PI3K/AKT and RAF/MEK/ERK signaling pathways (Western blot),[9],Potent inhibition
same,HSP70 (Western blot),[9],concurrent induction
same,"HSP70, apoptosis and phosphorylated-AKT in tumors (Western blot)",[10],Sustained induction of HSP70 and apoptosis and inhibition of oncoprotein phosphorylated-AKT
same,AUC(0-inf),[11],10500 ng·h/mL
same,Cmax,[11],1380 ng/mL
same,Tmax,[11],2 h
same,half-life,[11],3.3 h
same,AUC(0-t),[11]; read-out: AUC0-24,10400 ng·h/mL
same,EGFR and signaling molecules in tumors (Western blot),[12],inhibited
same,tumor regression,[13],3.4%
same,"HSP70, a marker of HSP90 inhibition",[14],concurrent induction
same,HSP90 client proteins in tumors,[14],potent inhibition
same,mutant EGFR,[14],induced degradation
same,apoptosis (PARP and caspase-3 cleavages),[14]; 6- and 24-hour time points,robustly induced apoptosis
same,HSP90 client proteins in tumors (Western blot),[15],dose-dependent inhibition
same,concentration at 0.08333 hr,"[16]; female, athymic nude (CD-1 nu/nu), mouse, iv, i.v. delivery (Cassette Study), Time 0.08333 hr, read-out: HSP90 Compounds in Mouse Brain",3240 ng/g
same,concentration at 0.5 hr,[16]; [22],1450 ng/g
same,concentration at 2 hr,[16]; [22],773 ng/g
same,concentration at 6 hr,[16]; [22],177 ng/g
same,concentration at 24 hr,[16]; [22],27 ng/g
same,concentration at 48 hr,[16]; [22],4.8 ng/g
same,concentration at 0.5 hr,[16]; [23],61.2 ng/g
same,concentration at 2 hr,[16]; [23],256 ng/g
same,concentration at 6 hr,[16]; [23],218 ng/g
same,concentration at 24 hr,[16]; [23],5.9 ng/g
same,concentration at 48 hr,[16]; [23],0.7 ng/g
same,AUC i.v. in the brain,[16]; i.v.,6761.3 ng·h/g
same,AUC p.o. in the brain,[16]; p.o.,3293.9 ng·h/g
same,F (%) in the brain,[16]; p.o. vs i.v.,24.4%
same,"animal survival, dose dependence","[17]; 20, 40, 80, and 120 mg/kg, 5-wk dosing regimen",dose-dependently extended animal survival
same,animal survival,"[17]; Compound-15 120 mg/kg orally once every two days, erlotinib 50 mg/kg orally once a day, 5 wk",significantly prolonged animal survival
same,animal survival,[18],significantly prolonged animal survival
same,T/C,[19],9.5%
same,tumor growth,[19],Tumor stasis
same,body weight,[20],without significant loss
same,tumor growth,[20],Dose-dependent inhibition
